One series deals with KKAy mice. The series is described as follows: Blood glucose and blood lipid (triglyceride) lowering action in mice. The format is in vivo. As to conditions: Mus musculus, 4TO7, po, 4 to 7 days; for response vs control in vivo at 0.01 %: 0.01% in powder diet; for response vs control in vivo at 0.03 %: 0.03% in powder diet; for response vs control in vivo at 0.005 %: 0.005% in powder diet. The source says: The test compound was mixed with a powder diet (CE-2, CLEA JAPAN, INC.) at a proportion of 0.01% (0.03% for the compounds of Examples 1, 2, 12, 81, 94, 96, 129 and 143, and 0.005% for the compounds of Examples 28, 30 and 37) and freely given to KKAy mice (9 to 14-week-old, 5 mice per group) which are obesity non-insulin-dependent diabetes (type-2 diabetes) models, for 4 to 7 days. During this period, water was freely given. The blood was drawn from the orbital venous plexus. Glucose and triglyceride in the plasma separated from the blood were quantitated using L Type Wako Glu2 (Wako Pure Chemical Industries, Ltd.) and L Type Wako TG·H (Wako Pure Chemical Industries, Ltd.), respectively, according to an enzyme method.

A further series concerns the target T1, PPARγ-RXRα heterodimer (Homo sapiens, UniProt P37231).
T1 construct: expressed in transfected cells; host or cells: CHO-K1 (PPARγ:RXRα:4ERPP/CHO-K1)
T1 sequence (P37231 1-477 isoform P37231-2): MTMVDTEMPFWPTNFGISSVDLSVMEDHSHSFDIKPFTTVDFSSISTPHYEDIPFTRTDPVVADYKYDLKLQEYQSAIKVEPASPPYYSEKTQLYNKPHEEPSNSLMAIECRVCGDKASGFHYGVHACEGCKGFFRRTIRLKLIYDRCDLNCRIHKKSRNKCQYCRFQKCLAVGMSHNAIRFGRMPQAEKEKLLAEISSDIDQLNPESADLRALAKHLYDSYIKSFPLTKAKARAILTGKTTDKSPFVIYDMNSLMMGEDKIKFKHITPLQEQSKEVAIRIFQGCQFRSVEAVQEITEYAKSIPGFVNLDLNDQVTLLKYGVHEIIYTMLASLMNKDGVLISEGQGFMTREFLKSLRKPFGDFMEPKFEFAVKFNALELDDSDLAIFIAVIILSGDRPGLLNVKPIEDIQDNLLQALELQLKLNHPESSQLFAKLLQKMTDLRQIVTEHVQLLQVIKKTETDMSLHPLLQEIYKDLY
T1 sequence (P19793 1-462 partner): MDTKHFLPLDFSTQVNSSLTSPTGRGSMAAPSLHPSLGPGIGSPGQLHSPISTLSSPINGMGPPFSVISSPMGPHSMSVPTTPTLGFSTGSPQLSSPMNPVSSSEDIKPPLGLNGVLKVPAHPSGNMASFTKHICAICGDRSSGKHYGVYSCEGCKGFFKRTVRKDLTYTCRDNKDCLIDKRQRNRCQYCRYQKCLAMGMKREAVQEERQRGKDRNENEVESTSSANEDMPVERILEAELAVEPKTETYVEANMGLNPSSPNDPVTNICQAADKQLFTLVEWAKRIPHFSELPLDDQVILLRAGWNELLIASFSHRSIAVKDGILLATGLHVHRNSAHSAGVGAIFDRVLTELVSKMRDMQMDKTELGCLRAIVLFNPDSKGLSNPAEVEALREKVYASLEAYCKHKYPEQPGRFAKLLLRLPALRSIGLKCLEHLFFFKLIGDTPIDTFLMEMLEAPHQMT
The series is described as follows: PPARγ-RXRα heterodimer ligand activity (luciferase reporter, PPARγ:RXRα:4ERPP/CHO-K1 cells). As to conditions: concentration showing 50% of the maximum luciferase induction rate; CHO-K1 reporter cells, one day incubation. The format is cell-based. Put shortly: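 CHO-K1 cells expressing PPARγ:RXRα with a 4ERPP reporter were exposed to compound for one day at 37° C in Ham F12 containing 0.1% fatty acid-free BSA, then read for luciferase. Induction rate was taken relative to untreated cells as 1, and EC50 is the concentration giving 50% of maximal induction.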
A general note: Reporter assays use an easily measured gene product as a stand-in for the process of interest.

Setting [1] is: plasma glucose relative to non-administration group = 100%, read-out: hypoglycemic action (%).
[2] abbreviates: plasma triglyceride relative to non-administration group = 100%, read-out: hypolipidemic action (%).

What is called melting point is the temperature of the solid-liquid transition. As a reminder, the EC50 is the concentration that produces a half-maximal response.

Read-outs that look alike come from different tables or passages of the source.

`CCCCCS(=O)(=O)NC(=O)/C=C/c1cc(OCC2CC2)nn1Cc1ccc(C(F)(F)F)cc1Cl` [Example 151, (2E)-3-[1-[2-chloro-4-(trifluoromethyl)benzyl]-3-(cyclopropylmethoxy)-1H-pyrazol-5-yl]-N-(pentylsulfonyl)acrylamide]: the melting point fell in the range of 148 to 151 °C. For the same compound, the response vs control in vivo at 0.01 % with KKAy mice (setting [1]) stood at 59%. Also, the response vs control in vivo at 0.01 % in the series with KKAy mice (setting [2]) stood at 73%. Also, the midpoint of the response at PPARγ-RXRα heterodimer, the EC50, lay at 7.2 nM.

Take `CCCCCS(=O)(=O)NC(=O)/C(=C/c1ccc(OCCOC)cc1Oc1ncc(C(F)(F)F)cc1Cl)CC` [Example 183, (2E)-2-[2-{[3-chloro-5-(trifluoromethyl)pyridin-2-yl]oxy}-4-(2-methoxyethoxy)benzylidene]-N-(pentylsulfonyl)butanamide]: the melting point lay within 104.5 to 105.6 °C. Besides, the response vs control in vivo at 0.01 % with KKAy mice (setting [1]) came to 48%. The response vs control in vivo at 0.01 % in the series on KKAy mice (setting [2]) came out at 44%. On PPARγ-RXRα heterodimer, this compound had a concentration giving a half-maximal response (EC50) of 3.8 nM.

`COCCOc1ccc(CCCOC(=O)NS(=O)(=O)NCCOC(C)C)c(Oc2ncc(Cl)cc2Cl)c1` [Example 429, 3-[2-[(3,5-dichloropyridin-2-yl)oxy]-4-(2-methoxyethoxy)phenyl]propyl {[(2-isopropoxyethyl)amino]sulfonyl}carbamate] showed a melting point of 87.5 to 88.4 °C. Besides, in the series on KKAy mice (setting [1]), the response vs control in vivo at 0.01 % turned out to be 51%. For the same compound, in the series on KKAy mice (setting [2]), the response vs control in vivo at 0.01 % was found to be 60%. This compound yielded an EC50 on PPARγ-RXRα heterodimer of 3.8 nM.

In the case of `CCCCCS(=O)(=O)NC(=O)/C=C/c1ccc(OC(COCC)COCC)cc1Oc1ncc(C(F)(F)F)cc1Cl` [Example 198, (2E)-3-{2-{[3-chloro-5-(trifluoromethyl)pyridin-2-yl]oxy}-4-[2-ethoxy-1-(ethoxymethyl)ethoxy]phenyl}-N-(pentylsulfonyl)acrylamide], the melting point is 83 to 85.5 °C. Besides, in the series with KKAy mice (setting [1]), the response vs control in vivo at 0.01 % was 62%. The response vs control in vivo at 0.01 % with KKAy mice (setting [2]) was found to be 84%. The compound also displayed a 50% effective concentration (EC50) on PPARγ-RXRα heterodimer of 7.8 nM.

Regarding `CCCCCS(=O)(=O)NC(=O)CCc1cc(OCCCC)nn1Cc1ccc(Cl)cc1Cl` [Example 97, 3-[3-butoxy-1-(2,4-dichlorobenzyl)-1H-pyrazol-5-yl]-N-(pentylsulfonyl)propanamide], the melting point fell in the range of 104 to 105 °C. Also, the response vs control in vivo at 0.01 % with KKAy mice (setting [1]) came out at 58%. Also, in the series on KKAy mice (setting [2]), the response vs control in vivo at 0.01 % stood at 64%. Also, on PPARγ-RXRα heterodimer, the EC50 was 7.5 nM.

In turn, `CCCCOC(=O)NS(=O)(=O)CCc1cc(OCCCC)nn1Cc1ccc(Cl)cc1Cl` [Example 129, butyl ({2-[3-butoxy-1-(2,4-dichlorobenzyl)-1H-pyrazol-5-yl]ethyl}sulfonyl)carbamate] registered a melting point of 108 to 111 °C. For the same compound, the response vs control in vivo at 0.03 % in the series on KKAy mice (setting [1]) came out at 45%. Further, in the series with KKAy mice (setting [2]), the response vs control in vivo at 0.03 % was found to be 76%. On PPARγ-RXRα heterodimer, this compound returned an EC50 of 10 nM.

`CCCCCS(=O)(=O)NC(=O)/C=C/c1ccc(Oc2ncccn2)cc1Oc1ncc(C(F)(F)F)cc1Cl` [Example 197, (2E)-3-[2-{[3-chloro-5-(trifluoromethyl)pyridin-2-yl]oxy}-4-(pyrimidin-2-yloxy)phenyl]-N-(pentylsulfonyl)acrylamide]: the melting point is 80.5 to 82.5 °C. In the series with KKAy mice (setting [1]), the response vs control in vivo at 0.01 % was found to be 58%. The response vs control in vivo at 0.01 % in the series with KKAy mice (setting [2]) is 87%. On PPARγ-RXRα heterodimer, a half-maximal effect (EC50) was put at 28 nM.

As to `CC(C)Oc1ccc(CCCOC(=O)NS(=O)(=O)NCCc2ccccn2)c(Oc2ncc(C(F)(F)F)cc2Cl)c1` [Example 444, 3-(2-{[3-chloro-5-(trifluoromethyl)pyridin-2-yl]oxy}-47 isopropoxyphenyl)propyl {[(2-pyridin-2-ylethyl)amino]sulfonyl}carbamate], the response vs control in vivo at 0.01 % with KKAy mice (setting [1]) amounted to 55%; with KKAy mice (setting [2]), 52%. Also, the EC50 on PPARγ-RXRα heterodimer stood at 3.4 nM.

`CCCCCS(=O)(=O)NC(=O)CCc1cc(OC(C)C)nn1Cc1ccc(Cl)cc1Cl` [Example 81, 3-[1-(2,4-dichlorobenzyl)-3-isopropoxy-1H-pyrazol-5-yl]-N-(pentylsulfonyl)propanamide]: the response vs control in vivo at 0.03 % in the series with KKAy mice (setting [1]) is 44%; in the series on KKAy mice (setting [2]), 60%. This compound also displayed an EC50 on PPARγ-RXRα heterodimer of 16 nM.

With `CCCCCS(=O)(=O)NC(=O)OCCCc1ccc(OCCOC)cc1Oc1ncc(C(F)(F)F)cc1Cl` [Example 28, 3-[2-{[3-chloro-5-(trifluoromethyl)pyridin-2-yl]oxy}-4-(2-methoxyethoxy)phenyl]propyl (pentylsulfonyl)carbamate], the response vs control in vivo at 0.005 % in the series with KKAy mice (setting [1]) worked out at 52%; in the series with KKAy mice (setting [2]), 32%. This compound also registered an EC50 at PPARγ-RXRα heterodimer of 4.5 nM.

As for `CCCCCS(=O)(=O)NC(=O)C(C)(C)Cc1ccc(OCCOC)cc1Oc1ncc(C(F)(F)F)cc1Cl` [Example 252, 3-[2-{[3-chloro-5-(trifluoromethyl)pyridin-2-yl]oxy}-4-(2-methoxyethoxy)phenyl]-2,2-dimethyl-N-(pentylsulfonyl)propanamide], the response vs control in vivo at 0.01 % with KKAy mice (setting [1]) was 46%; with KKAy mice (setting [2]), 20%. Further, the EC50 at PPARγ-RXRα heterodimer is 3.1 nM.

Take `CCCCCS(=O)(=O)NC(=O)/C=C/c1cc(OC(C)C)nn1Cc1ccc(Cl)cc1Cl` [Example 94, (2E)-3-[1-(2,4-dichlorobenzyl)-3-isopropoxy-1H-pyrazol-5-yl]-N-(pentylsulfonyl)acrylamide]: the response vs control in vivo at 0.03 % in the series on KKAy mice (setting [1]) came out at 48%; in the series with KKAy mice (setting [2]), 79%. The response on PPARγ-RXRα heterodimer was half-maximal at 20 nM (EC50).

For the compound `COCCOc1ccc(CCCOC(=O)NS(=O)(=O)NCCOC(C)C)c(Oc2ncc(C(F)(F)F)cc2Cl)c1` [Example 204, 3-[2-{[3-chloro-5-(trifluoromethyl)pyridin-2-yl]oxy}-4-(2-methoxyethoxy)phenyl]propyl {[(2-isopropoxyethyl)amino]sulfonyl}carbamate], the response vs control in vivo at 0.01 % stood at 52% with KKAy mice (setting [1]) and 36% with KKAy mice (setting [2]). In addition, the EC50 at PPARγ-RXRα heterodimer came to 0.92 nM.

On to `CC(C)OCCNS(=O)(=O)NC(=O)OCCCc1ccc(OCCO)cc1Oc1ncc(C(F)(F)F)cc1Cl` [Example 439, 3-[2-{[3-chloro-5-(trifluoromethyl)pyridin-2-yl]oxy}-4-(2-hydroxyethoxy)phenyl]propyl {[(2-isopropoxyethyl)amino]sulfonyl}carbamate], for which the response vs control in vivo at 0.01 % in the series on KKAy mice (setting [1]) is 49%; with KKAy mice (setting [2]), 34%. Further, on PPARγ-RXRα heterodimer, the EC50 was 1.8 nM.

Turning to `CCCCCS(=O)(=O)NC(=O)/C=C/c1ccc(OCCOC)cc1Oc1ncc(C(F)(F)F)cc1Cl` [Example 12, (2E)-3-[2-{[3-chloro-5-(trifluoromethyl)pyridin-2-yl]oxy}-4-(2-methoxyethoxy)phenyl]-N-(pentylsulfonyl)acrylamide], the response vs control in vivo at 0.03 % with KKAy mice (setting [1]) came to 46%; in the series on KKAy mice (setting [2]), 43%. In addition, at PPARγ-RXRα heterodimer, the EC50 came to 15 nM.

For the origin of these results see US20100041892A1, “Therapeutic agent for diabetes” (priority 2005, published 2010).
